Converted amounts (≈) assume the structure as drawn.
Experiments:
Format in all cases: functional, cell-based
SK-MEL-28 = assay: Cytotoxicity against human SK-MEL-28 cells
[1] = Cytotoxicity against mouse SCHABEL cells
HT-29 = assay: Cytotoxicity against human HT29 cells
A549 = assay: Cytotoxicity against human A549 cells
P388 = assay: Cytotoxicity against mouse P388 cells

SMILES	IC50 (SK-MEL-28) [µg/mL]	IC50 [1] [µg/mL]	IC50 (HT-29)	IC50 (A549)	IC50 (P388)
C=C1C(=O)O[C@@H]2/C=C(\CO)CC/C=C(\C)C[C@H](OC(=O)/C(C)=C\COC(C)=O)[C@@H]12	5 (≈ 12.4 µM)	2.5 (≈ 6.18 µM)	5 µg/mL	5 µg/mL	2.5 µg/mL
C=C1C(=O)O[C@@H]2/C=C(\CO)CC/C=C(\C)C[C@H](OC(=O)C(=C)[C@H](O)CO)[C@@H]12 [CNICIN]			13.2 µM	13.2 µM	6.6 µM
C=C1C(=O)O[C@H]2[C@H]1[C@@H](OC(=O)C(=C)[C@@H](O)CO)C[C@]1(C)[C@@H]2[C@@H](C=O)CC[C@H]1O [MALACITANOLIDE]	0.12 (≈ 0.304 µM)	0.12 (≈ 0.304 µM)	0.12 µg/mL	0.12 µg/mL	0.12 µg/mL
